In patent US20230265614A1, “WATER INSOLUBLE, HIGH MELTING POINT SACCHARIDE FATTY ACID ESTERS (SFAE)” (GREENTECH GLOBAL PTE. LTD., priority 2021, published 2023):

Assay: Solubility in water at 25° C. of specific SFAEs
Type: physicochemical
Settings: water insoluble = does not dissolve in water at 25° C.

Solubility in Water at 25° C. | Substance
soluble | raffinose monostearate
Insoluble | trehalose distearate
Insoluble | trehalose monomyristate
Insoluble | trehalose monopalmitate
Insoluble | trehalose monostearate

Second part, the substance before the results:

Substance | Solubility in Water at 25° C.
raffinose monolaurate | soluble
trehalose dilaurate | Insoluble
trehalose dimyristate | Insoluble
trehalose dipalmitate | Insoluble
trehalose monolaurate | soluble
